The values that follow are results of earlier work, collected in patent publication US5152997A, “Method and device for transdermally administering testosterone across nonscrotal skin at therapeutically effective levels” (Theratech, Inc., priority 1991, dated 1992).

Structures are written as SMILES.

The conditions of data set [1]: e.g., neck, back, chest, arms; for delivery of 5-10 mg/day through a limited area.

Turning to `CCCCCCCCCCC(=O)O[C@H]1CC[C@H]2[C@@H]3CCC4=CC(=O)CC[C@]4(C)[C@H]3CC[C@]12C` [testosterone undecanoate], the “systemic availability of testosterone” value (oral administration) is “provides systemically available testosterone”.
Regarding `C[C@]12CC[C@H]3[C@@H](CCC4=CC(=O)CC[C@@]43C)[C@@H]1CC[C@@H]2O` [testosterone], the “degradation by the liver” value (administered orally) was “rapidly degraded by the liver”. The “permeability to testosterone of skin areas normally used for transdermal delivery” value in data set [1] is given as “too low to permit delivery of the amounts of testosterone needed for therapy”.
